Laboratory results taken from PubChem BioAssay (NCI).
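Assay format: 96-well plates, 48-hour exposure. GI50 = concentration required for 50% inhibition of growth. TGI is the concentration that stops growth completely.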 The source made the active and inactive calls. No stated cut-off is given here; in the data, active means GI50 below about 0.43 µM; inactive means the rest.

How the values were obtained:
Test in all cases: NCI-60 cell line screen, 48 h
A498 renal = system: A498 renal
CAKI-1 renal = system: CAKI-1 renal
HCT-116 colon = system: HCT-116 colon
HOP-92 NSCLC = system: HOP-92 NSCLC
NCI/ADR-RES ovarian = system: NCI/ADR-RES ovarian
MDA-MB-231 breast = system: MDA-MB-231 breast
MDA-MB-435 = system: MDA-MB-435

SMILES	TGI (A498 renal)	TGI (CAKI-1 renal)	TGI (HCT-116 colon)	TGI (HOP-92 NSCLC)	TGI (NCI/ADR-RES ovarian)	TGI (MDA-MB-231 breast)	TGI (MDA-MB-435)	further results
O=NN1C(c2ccccc2)CCCC1c1ccccc1 (stereo unspecified)	> 85.5 µM	> 100 µM	> 100 µM	> 96.1 µM	> 100 µM			
COc1cc(/C(=C2/O[C@@H]([C@H]3COC(C)(C)O3)[C@H]3OC(C)(C)O[C@@H]23)c2ccc3c(c2)OCO3)cc(OC)c1OC	> 25 µM	> 25 µM		> 25 µM	> 25 µM	> 25 µM	> 25 µM	GI50 (A498 renal): > 25 µM; GI50 (CAKI-1 renal): > 25 µM; GI50 (HOP-92 NSCLC): > 25 µM; GI50 (MDA-MB-231 breast): > 25 µM; GI50 (MDA-MB-435): > 25 µM; GI50 (NCI/ADR-RES ovarian): > 25 µM
CCOC(=O)C1=C(c2ccccc2)C12N(Cc1ccccc1)C(=O)C2(c1ccccc1)c1ccccc1 (stereo unspecified)	90.9 µM		> 100 µM	87.5 µM		> 100 µM	> 100 µM	
O=P(O)(O)CN1CCNCCN(CP(=O)(O)O)CCN(CP(=O)(O)O)CCNCC1		86100 µM						outcome (A498 renal): inactive; outcome (HOP-92 NSCLC): inactive; outcome (MDA-MB-231 breast): inactive; outcome (MDA-MB-435): inactive; outcome (NCI/ADR-RES ovarian): inactive
COc1cc(-c2nc3cc(Cl)c(Cl)cc3[nH]2)ccc1OCC(=O)N=Nc1c(O)[nH]c2ccc(Cl)cc12			1.2 µM		> 100 µM	1.95 µM		GI50 (HCT-116 colon): 0.284 µM; GI50 (MDA-MB-231 breast): 0.538 µM; GI50 (NCI/ADR-RES ovarian): > 100 µM
C[N+]1([O-])[C@H]2CC(OC(=O)[C@H](CO)c3ccccc3)C[C@H]1[C@H]1O[C@H]12 (stereo partly specified)	> 100 µM	> 100 µM	> 100 µM		> 100 µM	> 100 µM	> 100 µM	
O=Cc1c(Br)[nH]c2ccccc12	> 100 µM		> 100 µM	> 100 µM	> 100 µM			
COc1ccc([C@H]2c3cc4c(cc3OC(O)(CO)[C@H]2C(=O)O)OCO4)c(OC)c1 (stereo partly specified) (tested in a mixture with another compound)	> 100 µM		> 100 µM	> 100 µM				
Cc1cc2oc3c(ccc(=O)n3C)c(=O)c2c(C)c1Cl	> 100 µM	> 100 µM	> 100 µM	> 100 µM	> 100 µM	> 100 µM	> 100 µM	
CCCCOc1ccc2c(c1)CC[C@@H]1[C@@H]2CC[C@]2(C)C(=O)N(CCCC)C(=O)C[C@@H]12	> 100 µM	> 100 µM	> 100 µM	> 100 µM	> 100 µM	> 100 µM	> 100 µM	
O=C(c1ccccc1O)c1cc(-c2ncc3c(=O)c4ccccc4oc3n2)c(-c2ccccc2O)[nH]c1=O	57.1 µM	> 33.3 µM	47.4 µM	52 µM	> 87.6 µM			
O=C(Nc1ccc(Sc2ccc(N=Nc3c(O)c(S(=O)(=O)O)cc4cc(S(=O)(=O)O)ccc34)cc2)cc1)c1ccc(N=Nc2c(O)c(S(=O)(=O)O)cc3cc(S(=O)(=O)O)ccc23)cc1	> 100 µM	> 100 µM	> 100 µM	92.4 µM				
NCCS(=O)(=O)O		> 100 µM	> 100 µM	> 100 µM	> 100 µM	> 100 µM	> 100 µM	
